The source made the active and inactive calls. The rule behind the calls is not given here.
Legend:
[1] = system: MCF7; experiment: Cytotoxicity against human MCF7 incubated for 3 days by MTT assay; type: functional, cell-based; settings: MCF7, 72 h
[2] = system: HepG2; experiment: Cytotoxicity against human HepG2 cells incubated for 3 days by MTT assay; type: functional, cell-based; settings: HepG2, 72 h
[3] = system: A549; experiment: Cytotoxicity against human A549 cells incubated for 3 days by MTT assay; type: functional, cell-based; settings: A549, 72 h
[4] = system: Neutrophil; experiment: Anti-inflammatory activity in human neutrophils assessed as inhibition of fMLP/CB-induced elastase release incubated for 5 mins followed by fMLP/CB stimulation using MeO-Suc-Ala-Ala-Pro-Val-p-nitroanilide substrate; type: functional, cell-based
[5] = Anti-inflammatory activity in human neutrophils assessed as inhibition of fMLP/CB-induced superoxide anion generation incubated for 5 mins followed by fMLP/CB stimulation for 10 mins by spectrophotometry; type: functional, cell-based, Neutrophil
[6] = Cytotoxicity against human Hep2 cells incubated for 3 days by MTT assay; type: functional, cell-based; settings: HEp-2, 72 h
[7] = Anti-inflammatory activity in human neutrophils assessed as inhibition of fMLP/CB-induced elastase release at 28.6 uM incubated for 5 mins followed by fMLP/CB stimulation using MeO-Suc-Ala-Ala-Pro-Val-p-nitroanilide substrate; type: functional; settings: Neutrophil

IC50 ([5]; neutrophil)	IC50 ([5]; Homo sapiens, Neutrophil, read-out: IC50) [µM]	Compound	IC50 [1] [µM]	IC50 [2] [µM]	IC50 [3] [µM]	inhibition [4]	IC50 [6] [µM]	inhibition at 28.6 µM [7] [%]
Not Active		C[C@@H]1C[C@H]2C(=O)C(C)(C)[C@H](OC=O)CC[C@]2(O)[C@@]1(C)CCC1=CC(=O)OC1	> 10	> 10	> 10	inactive	> 10	
Not Active		C[C@@H]1CC[C@@]2(O)[C@@H](C[C@@H](O)C2(C)C)C(=O)[C@@]1(C)CCC1=CC(=O)OC1	> 10	> 10	> 10	inactive	> 10	
Not Active		C[C@@H]1C[C@H]2C(=O)C(C)(C)[C@H](O)CC[C@]2(O)[C@@]1(C)CCC1=CC(=O)OC1	> 10	> 10	> 10	inactive	> 10	
	21.5	C[C@@H]1CC[C@]2(O)[C@H](C[C@@H](O)C2(C)C)C(=O)[C@@]1(C)CCC1=CC(=O)OC1	> 10	> 10	> 10		> 10	35.9
